The source of these data is patent publication US11707447B1.

Structures are written as SMILES. Entries after “also recorded” stand apart in the source; their conditions may differ. Bounds are passed on as bounds.

One data set has as its system HepG2 cells. Description: PrestoBlue cell viability assay. As to conditions: 48 h incubation. The format is cell-based, human. The text has this:
Non-treated cells were assigned 100% viability. Bar graphs show the mean+/−SD, n=3.

The nature of data set [1]: In vitro metabolic stability / psilocin release, human AB serum. The format is in vitro ADME. The text has this: A fundamental evaluation in drug development is the assessment of absorption, distribution, metabolism, excretion, and pharmacokinetics (ADME/PK) (Eddershaw et al., 2000, Drug Discovery Today 5(9): 409-414). […] Drug stability upon exposure to human liver microsomes and liver S9 cellular fractions is a common in vitro assay to approximate in vivo, liver-based drug metabolism (Richardson et al., 2016 Drug Metabolism Letters 10:83-90). First-pass metabolism is also often approximated in vitro using intestinal microsome and cellular S9 fractions (Hatley et al., 2017, Biopharmaceuticals & Drug Disposition, 38(2):155-160). Further, it is well known that human serum, and particularly circulating serum esterases can contribute to systemic drug metabolism (Williams, F M 1987, Pharmacology and Therapeutics, 34:99-109). Many pharmacological agents are classified as prodrugs, as they undergo metabolic transformation in vivo upon administration to release the active drug compound into the systemic compartment (Zawilska J B, et al. 2013, Pharmacological Reports, 65:1-14). Psilocybin, a serotonergic psychedelic agent, is well known prodrug that is metabolized into the psychoactive product, psilocin (Dinis-Oliveira, R J 2017, Drug Metabolism Reviews, 49(1):84-91). To evaluate the capacity of test molecules to similarly serve as prodrugs of psilocin, time-dependent, metabolic stability assays using human AB serum, human intestinal microsomes (HIM), human intestinal S9 fractions (HIS9), human liver microsomes (HLM), human liver S9 fractions (HLS9), human alkaline phosphatase, and porcine esterase were performed. […] Liquid chromatography coupled mass spectrometry (LC-MS) was employed to track the conversion of the test molecules into psilocin. All intestinal and liver fractions and NADPH RapidStart reagent was purchased from Sekisui/XenoTech. Human AB serum was purchased from Sigma. […] Supernatants were analyzed for the presence of candidate prodrugs (parent molecule) and psilocin (the predicted metabolite) using Orbitrap LC-MS (Thermo Scientific) using previously described methods (Menéndez-Perdomo et al., 2021, J. Mass Spectrom., 56: e4683). […] Assay concentrations (μM) of both parent ‘prodrug’ molecule and psilocin metabolite, as quantified through LC-MS using routine standard curve procedures, were plotted as functions of assay time (minutes). The metabolism rate (T1/2) was determined from the metabolism curve plot using the one phase decay feature of GraphPad PRISM software (Version 9.2.0). The quantity of parent prodrug at time zero was set as 100%. […]

The next data set has as its target ADRA1A (Homo sapiens, UniProt P35348). Description: SAFETYscan calcium secondary messenger assay (agonist/antagonist mode). The format is cell-based.
Another data set concerns the target CHRM1 (Homo sapiens, UniProt P11229). As to the kind of experiment: cell-based.
For the next data set, the target named is DRD1 (Homo sapiens, UniProt P21728). As to the kind of experiment: SAFETYscan EFC-based cAMP secondary messenger assay (agonist/antagonist mode). The data set is classed as cell-based.
Another data set deals with HTR3A (5-HT3A) (Homo sapiens, UniProt P46098). Description: SAFETYscan ion channel assay, FLIPR membrane potential (opener/blocker). The data set is classed as cell-based.
Another data set addresses DAT (Homo sapiens, UniProt Q01959). Description: Neurotransmitter transporter uptake assay (blocker).
The target in a further data set is NET (Homo sapiens, UniProt P23975). Described as above.
The next data set deals with ADRA2A (Homo sapiens, UniProt P08913). Description: SAFETYscan EFC-based cAMP secondary messenger assay (agonist/antagonist mode).
A further data set addresses CNR1 (Homo sapiens, UniProt P21554). The description is as above.
A further data set has as its target DRD2S (Homo sapiens, UniProt P14416). The data set is described as above.
Another data set addresses HTR1B (5-HTR1B) (Homo sapiens, UniProt P28222). Described as above.
The target of the next data set is OPRD1 (Homo sapiens, UniProt P41143). The description is as above.
OPRD1, sequence (P41143 whole entry): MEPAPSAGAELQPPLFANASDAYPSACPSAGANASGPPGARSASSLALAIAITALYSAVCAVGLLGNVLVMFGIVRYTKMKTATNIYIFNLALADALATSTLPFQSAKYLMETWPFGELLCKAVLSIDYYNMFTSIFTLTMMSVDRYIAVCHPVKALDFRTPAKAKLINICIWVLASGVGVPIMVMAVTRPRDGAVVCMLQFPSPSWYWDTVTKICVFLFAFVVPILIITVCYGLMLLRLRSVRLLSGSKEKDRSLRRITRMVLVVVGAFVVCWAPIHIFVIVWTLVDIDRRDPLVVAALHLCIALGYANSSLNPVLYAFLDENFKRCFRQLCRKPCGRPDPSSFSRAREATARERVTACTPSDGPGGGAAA

CNR1, sequence (P21554 whole entry): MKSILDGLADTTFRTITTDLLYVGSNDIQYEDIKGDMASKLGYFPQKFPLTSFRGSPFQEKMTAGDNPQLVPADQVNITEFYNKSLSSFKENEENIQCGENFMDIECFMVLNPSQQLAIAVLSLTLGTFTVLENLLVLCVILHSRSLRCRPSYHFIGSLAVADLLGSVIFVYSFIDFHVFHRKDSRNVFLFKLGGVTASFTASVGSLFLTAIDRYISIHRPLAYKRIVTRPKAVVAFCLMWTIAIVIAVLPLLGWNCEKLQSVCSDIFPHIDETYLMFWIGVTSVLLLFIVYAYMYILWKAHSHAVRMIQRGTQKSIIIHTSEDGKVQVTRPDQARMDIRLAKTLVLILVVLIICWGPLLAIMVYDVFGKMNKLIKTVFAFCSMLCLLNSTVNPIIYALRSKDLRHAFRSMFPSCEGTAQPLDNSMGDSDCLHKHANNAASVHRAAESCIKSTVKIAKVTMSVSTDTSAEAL
HTR1B (5-HTR1B), sequence (P28222 whole entry): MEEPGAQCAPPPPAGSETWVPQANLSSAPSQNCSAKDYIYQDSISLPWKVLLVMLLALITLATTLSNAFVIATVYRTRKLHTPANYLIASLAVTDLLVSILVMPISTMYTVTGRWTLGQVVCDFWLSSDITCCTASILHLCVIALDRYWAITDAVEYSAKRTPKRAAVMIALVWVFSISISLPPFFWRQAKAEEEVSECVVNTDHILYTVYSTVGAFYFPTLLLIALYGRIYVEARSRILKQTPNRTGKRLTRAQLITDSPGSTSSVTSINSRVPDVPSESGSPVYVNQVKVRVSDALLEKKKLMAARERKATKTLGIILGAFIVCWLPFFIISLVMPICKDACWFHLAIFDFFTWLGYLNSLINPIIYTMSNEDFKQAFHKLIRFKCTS
HTR3A (5-HT3A), sequence (P46098 24-478): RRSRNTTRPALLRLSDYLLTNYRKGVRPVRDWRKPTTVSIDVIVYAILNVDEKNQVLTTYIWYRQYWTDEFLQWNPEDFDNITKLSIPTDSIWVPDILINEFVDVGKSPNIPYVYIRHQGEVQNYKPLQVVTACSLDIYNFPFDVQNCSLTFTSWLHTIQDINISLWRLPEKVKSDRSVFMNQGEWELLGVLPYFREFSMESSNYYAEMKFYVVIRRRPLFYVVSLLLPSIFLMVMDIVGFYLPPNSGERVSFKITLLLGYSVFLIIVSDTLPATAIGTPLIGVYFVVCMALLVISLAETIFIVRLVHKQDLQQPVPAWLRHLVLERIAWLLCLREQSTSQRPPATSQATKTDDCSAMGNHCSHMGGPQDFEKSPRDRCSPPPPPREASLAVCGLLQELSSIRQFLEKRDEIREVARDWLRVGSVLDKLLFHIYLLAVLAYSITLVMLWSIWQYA
ADRA2A, sequence (P08913 whole entry): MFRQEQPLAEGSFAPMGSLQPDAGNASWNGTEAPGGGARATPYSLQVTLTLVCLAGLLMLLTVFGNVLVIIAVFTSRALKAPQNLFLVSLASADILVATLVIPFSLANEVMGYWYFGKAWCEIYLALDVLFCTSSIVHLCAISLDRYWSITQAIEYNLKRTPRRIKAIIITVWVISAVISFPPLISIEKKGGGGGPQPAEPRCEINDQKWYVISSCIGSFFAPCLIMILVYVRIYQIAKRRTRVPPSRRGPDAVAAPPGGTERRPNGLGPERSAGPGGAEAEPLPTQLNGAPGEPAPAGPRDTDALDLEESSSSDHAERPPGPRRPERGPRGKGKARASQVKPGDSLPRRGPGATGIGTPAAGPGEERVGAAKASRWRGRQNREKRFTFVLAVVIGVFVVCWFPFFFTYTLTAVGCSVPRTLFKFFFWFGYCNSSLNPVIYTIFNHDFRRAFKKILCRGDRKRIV
DRD2S, sequence (P14416 1-414 isoform P14416-2): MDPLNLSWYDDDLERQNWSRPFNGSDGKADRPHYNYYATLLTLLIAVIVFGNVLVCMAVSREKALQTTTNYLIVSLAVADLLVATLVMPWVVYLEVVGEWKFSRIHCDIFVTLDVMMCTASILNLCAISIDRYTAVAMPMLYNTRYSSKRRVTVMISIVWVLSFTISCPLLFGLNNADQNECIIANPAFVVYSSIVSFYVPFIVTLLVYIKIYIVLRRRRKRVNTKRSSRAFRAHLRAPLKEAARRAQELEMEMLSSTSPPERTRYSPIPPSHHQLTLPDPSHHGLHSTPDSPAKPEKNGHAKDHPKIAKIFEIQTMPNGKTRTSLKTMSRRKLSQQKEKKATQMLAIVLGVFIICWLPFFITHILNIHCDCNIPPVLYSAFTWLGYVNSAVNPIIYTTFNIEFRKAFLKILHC
ADRA1A, sequence (P35348 whole entry): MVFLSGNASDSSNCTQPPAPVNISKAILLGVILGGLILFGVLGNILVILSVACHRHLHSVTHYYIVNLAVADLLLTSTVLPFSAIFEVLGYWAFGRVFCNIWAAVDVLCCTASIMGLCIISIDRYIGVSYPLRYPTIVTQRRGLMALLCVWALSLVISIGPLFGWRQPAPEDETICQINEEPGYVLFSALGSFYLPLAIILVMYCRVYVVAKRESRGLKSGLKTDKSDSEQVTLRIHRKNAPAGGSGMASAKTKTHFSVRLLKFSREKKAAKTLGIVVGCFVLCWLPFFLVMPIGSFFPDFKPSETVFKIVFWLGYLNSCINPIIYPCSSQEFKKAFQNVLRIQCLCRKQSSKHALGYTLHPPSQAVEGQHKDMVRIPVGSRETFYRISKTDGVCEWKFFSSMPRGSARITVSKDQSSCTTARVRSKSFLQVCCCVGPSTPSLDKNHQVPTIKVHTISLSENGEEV
CHRM1, sequence (P11229 whole entry): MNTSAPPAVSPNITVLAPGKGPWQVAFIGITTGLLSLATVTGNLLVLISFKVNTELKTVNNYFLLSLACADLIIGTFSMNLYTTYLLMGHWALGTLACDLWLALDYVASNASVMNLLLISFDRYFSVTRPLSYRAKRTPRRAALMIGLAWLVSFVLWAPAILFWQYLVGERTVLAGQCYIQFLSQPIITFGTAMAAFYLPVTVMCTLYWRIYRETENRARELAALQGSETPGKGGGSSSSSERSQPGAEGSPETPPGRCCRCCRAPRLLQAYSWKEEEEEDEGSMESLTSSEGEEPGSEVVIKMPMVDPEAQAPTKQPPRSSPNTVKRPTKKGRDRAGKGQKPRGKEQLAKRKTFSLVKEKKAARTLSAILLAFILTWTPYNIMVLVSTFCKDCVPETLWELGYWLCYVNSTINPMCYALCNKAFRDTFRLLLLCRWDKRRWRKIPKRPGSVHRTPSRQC
DRD1, sequence (P21728 whole entry): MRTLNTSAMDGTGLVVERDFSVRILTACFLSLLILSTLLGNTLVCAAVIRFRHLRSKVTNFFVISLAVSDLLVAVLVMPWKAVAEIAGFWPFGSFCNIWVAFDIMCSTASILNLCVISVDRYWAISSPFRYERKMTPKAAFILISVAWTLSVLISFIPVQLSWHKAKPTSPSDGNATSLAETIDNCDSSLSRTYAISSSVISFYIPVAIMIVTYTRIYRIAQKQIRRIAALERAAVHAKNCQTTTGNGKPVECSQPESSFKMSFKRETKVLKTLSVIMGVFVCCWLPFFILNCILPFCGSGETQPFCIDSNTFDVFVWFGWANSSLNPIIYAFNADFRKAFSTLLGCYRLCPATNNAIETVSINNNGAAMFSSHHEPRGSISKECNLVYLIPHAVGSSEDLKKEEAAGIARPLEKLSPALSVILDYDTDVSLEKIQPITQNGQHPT
NET, sequence (P23975 whole entry): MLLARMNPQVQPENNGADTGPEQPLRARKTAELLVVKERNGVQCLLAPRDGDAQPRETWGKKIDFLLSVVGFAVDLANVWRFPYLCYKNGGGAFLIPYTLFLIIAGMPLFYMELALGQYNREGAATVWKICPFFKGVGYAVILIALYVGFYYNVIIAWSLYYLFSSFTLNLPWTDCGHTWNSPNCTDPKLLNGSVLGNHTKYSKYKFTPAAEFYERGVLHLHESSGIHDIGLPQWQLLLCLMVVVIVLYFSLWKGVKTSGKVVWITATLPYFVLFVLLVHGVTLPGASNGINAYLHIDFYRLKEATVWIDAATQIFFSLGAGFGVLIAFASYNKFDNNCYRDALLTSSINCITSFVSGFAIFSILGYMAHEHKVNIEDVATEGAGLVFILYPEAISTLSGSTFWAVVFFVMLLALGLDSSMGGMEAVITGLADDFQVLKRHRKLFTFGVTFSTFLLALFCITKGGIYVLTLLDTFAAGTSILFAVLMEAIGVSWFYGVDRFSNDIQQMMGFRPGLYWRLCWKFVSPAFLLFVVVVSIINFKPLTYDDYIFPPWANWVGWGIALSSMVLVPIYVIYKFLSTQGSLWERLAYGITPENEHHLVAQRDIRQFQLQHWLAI

Consider `CN(C)CCc1c[nH]c2cccc(OC(=O)SCc3ccccc3)c12` [E(VI)], for which, in the data set with HepG2 cells, the “CD50 (cytotoxicity, cell viability)” value is 74.5 µM. In [1] (AB serum), the “metabolic stability / conversion to psilocin (in words)” value was “quickly converted to psilocin in liver fractions and serum; also recorded: nearly completely disappears upon in vitro exposure to AB serum, but yields low quantities of psilocin”. For the same compound, the half-life in data set [1] (pH 7.4, 10% human AB serum, read-out: half-life (T1/2)) was found to be 14 min. Also, the EC50 on ADRA1A, at CHRM1 (agonist mode), on DRD1, at HTR3A (5-HT3A), on ADRA2A and at CNR1 was more than 100 µM throughout. For the same compound, the figures for the EC50 on DRD2S, at HTR1B (5-HTR1B) and at OPRD1 were more than 100 µM, 0.236 µM and 28.5 µM, respectively. Besides, the IC50 on ADRA1A came out at 1.09 µM; against CHRM1 (antagonist mode), 15.1 µM; on DRD1, 7.11 µM; against HTR3A (5-HT3A), 1.87 µM; at DAT, 1 µM; against NET, 9.25 µM. Besides, the IC50 on ADRA2A is 19.8 µM; on CNR1, 97 µM; on DRD2S, 13.3 µM; on HTR1B (5-HTR1B), more than 100 µM; on OPRD1, more than 100 µM.
